“Also recorded” adds a separate entry of the source. Like-named read-outs stand apart in the source and are kept apart here.
Columns and labels:
[1] = mice, Goodfellow et al 2013; cited from earlier work
[2] = system: E18 primary hippocampal neurons; experiment: Neuroprotection from HIV-1 Tat: hippocampal neurons in microfluidic chambers exposed to Tat-treated BV-2 microglia; format: cell-based; details: BV-2 microglia treated with 1 μg/ml HIV-1 Tat; for Axonogenesis in the presence of Tat-activated microglia: compound 100 nM, FIG. 1 arrows
Method: FIG. 2 is a graph illustrating the quantification of axon elimination in the presence of HIV tat and certain inhibitors including compounds of the present disclosure. FIG. 3 is a graph illustrating the quantification of axon length in the presence of HIV tat and certain inhibitors including compounds of the present disclosure. Neuroprotection from HIV-1 Tat: E18 primary hippocampal neurons were plated in microfluidic chambers for 7 days in vitro (DIV). These chambers contain a cell body compartment contiguous with a series of 10 um wide, 3 um high, 400 um long microgrooves through which axons grow into a second compartment, fluidically isolated by a hydrostatic pressure gradient. […] Chambers that were exposed to BV-2 microglia treated with Tat alone had almost their entire axonal field destroyed (FIG. 1, brightfield image). […] FIGS. 2 and 3 show quantifications of axon elimination in the presence of HIV tat and Compounds 169, 67, 68 and 175.

diverse set of kinases [3] = molecular target: diverse set of kinases (Homo sapiens, UniProt P00519, T315I); experiment: Protein kinase selectivity: IC50 against a diverse set of kinases, compared with URMC-099; format: biochemical; details: kinase ABL1, read-out: IC50 ABL1(T31SI)
Description: (§1) Protein Kinase Selectivity: MLK-3 inhibitors previously reported in the literature are somewhat promiscuous and inhibit a large number of serine and threonine protein kinases. Compounds of the present invention that show potent inhibition on MLK-3 are very specific for MLK family kinases. […] Journal of Medicinal Chemistry, 2013.

diverse set of kinases [4] = molecular target: T1, diverse set of kinases (Homo sapiens, UniProt O14920); experiment: as above; format: biochemical; details: kinase IKKb
T1 construct: IC50 IKKb; other: kinase IKKb
T1 sequence (O14920 1-756): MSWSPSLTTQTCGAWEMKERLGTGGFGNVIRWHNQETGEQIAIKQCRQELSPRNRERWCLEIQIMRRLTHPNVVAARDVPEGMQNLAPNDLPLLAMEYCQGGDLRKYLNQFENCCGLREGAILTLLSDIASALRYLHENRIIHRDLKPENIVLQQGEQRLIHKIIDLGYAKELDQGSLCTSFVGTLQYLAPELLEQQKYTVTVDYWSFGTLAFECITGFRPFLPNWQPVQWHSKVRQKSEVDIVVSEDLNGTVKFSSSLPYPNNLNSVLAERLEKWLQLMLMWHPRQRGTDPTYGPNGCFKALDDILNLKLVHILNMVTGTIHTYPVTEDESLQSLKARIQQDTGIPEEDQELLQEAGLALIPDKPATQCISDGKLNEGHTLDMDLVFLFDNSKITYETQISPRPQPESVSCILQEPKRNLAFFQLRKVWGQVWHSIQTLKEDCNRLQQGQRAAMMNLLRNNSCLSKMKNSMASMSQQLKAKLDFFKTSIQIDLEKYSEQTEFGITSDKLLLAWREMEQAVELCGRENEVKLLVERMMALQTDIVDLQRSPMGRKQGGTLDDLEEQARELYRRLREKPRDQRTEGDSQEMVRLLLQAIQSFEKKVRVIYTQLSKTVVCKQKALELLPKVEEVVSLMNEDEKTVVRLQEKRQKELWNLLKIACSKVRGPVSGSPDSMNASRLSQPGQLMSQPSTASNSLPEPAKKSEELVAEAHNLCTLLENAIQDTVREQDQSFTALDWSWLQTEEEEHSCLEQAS
Description: as §1

diverse set of kinases [5] = molecular target: T2, diverse set of kinases (Homo sapiens, UniProt P06213); experiment: as above; format: biochemical; details: kinase IR
T2 construct: IC50 IR; other: kinase IR
Description: as §1

diverse set of kinases [6] = molecular target: T3, diverse set of kinases (Homo sapiens, UniProt P24941); experiment: as above; format: biochemical; details: kinase CDK2
T3 construct: IC50 CDK2; other: kinase CDK2
Description: as §1

diverse set of kinases [7] = molecular target: T4, diverse set of kinases (Homo sapiens, UniProt O15111); experiment: as above; format: biochemical; details: kinase IKKa
T4 construct: IC50 IKKa; other: kinase IKKa
T4 sequence (O15111 1-745): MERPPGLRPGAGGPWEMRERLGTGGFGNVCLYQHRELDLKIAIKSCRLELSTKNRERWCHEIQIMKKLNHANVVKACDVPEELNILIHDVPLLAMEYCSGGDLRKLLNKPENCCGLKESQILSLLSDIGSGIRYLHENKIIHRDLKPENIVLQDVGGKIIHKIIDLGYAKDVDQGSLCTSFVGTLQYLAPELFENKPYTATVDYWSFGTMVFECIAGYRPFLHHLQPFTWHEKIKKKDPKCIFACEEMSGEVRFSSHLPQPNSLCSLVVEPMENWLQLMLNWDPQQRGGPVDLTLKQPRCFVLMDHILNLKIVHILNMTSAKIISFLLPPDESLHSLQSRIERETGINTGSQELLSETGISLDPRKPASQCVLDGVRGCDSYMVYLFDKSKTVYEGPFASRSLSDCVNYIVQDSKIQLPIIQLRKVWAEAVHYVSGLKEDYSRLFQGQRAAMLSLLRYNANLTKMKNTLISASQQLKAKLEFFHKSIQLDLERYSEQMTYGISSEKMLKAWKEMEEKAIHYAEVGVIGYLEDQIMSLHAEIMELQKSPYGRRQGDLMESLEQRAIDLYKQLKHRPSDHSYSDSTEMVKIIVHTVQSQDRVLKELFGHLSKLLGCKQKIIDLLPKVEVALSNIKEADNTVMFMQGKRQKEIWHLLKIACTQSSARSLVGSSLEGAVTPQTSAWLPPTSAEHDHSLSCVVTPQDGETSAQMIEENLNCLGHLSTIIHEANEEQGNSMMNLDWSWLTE
Description: as §1

[8] = Blood brain barrier penetration: standard murine pharmacokinetic model, plasma and brain concentrations; format: in vivo; details: mouse; brain concentration 3 hrs after single IV injection 10 mg/kg, CL57 BL/6 mice; read-out: Cbrain 3 hrs
Description: Compounds disclosed herein may be evaluated in pharmacokinetic assays and models to determine absorption, distribution, metabolism, and excretion parameters. The choice and tailoring of in vitro and ex vivo assays and in vivo models will vary according to the route of administration/formulation, indication under study, properties of test compounds, etc., as well as according to such factors as costs, availability of technology and resources, etc. Such parameters are well known in the fields of pharmacology and drug development. It is within the capacity of one skilled in the art to design and carry out, such work, or to outsource it to a capable third party.
Several compounds disclosed herein were evaluated in a standard murine pharmacokinetic model. […] For ease of analysis compounds were dissolved in 5% DMSO, 40% PEG400, and […] to yield a nominal concentration of 2 mg/mL for intravenous administration. Compounds were administered via a single intravenous (IV) injection in CL57 BL/6 mice at 10 mg/kg in DMSO/PEG400/Saline solution. Three mice in each group were used for blood and brain collection at each time point. Blood samples (300 μL) were collected via the retro-orbital vein predose and at 30, 60 and 180 minutes postdose. Blood samples were placed into tubes containing sodium heparin and centrifuged under refrigerated conditions at 8000 rpm for 6 minutes to separate plasma from the samples. The brain of each animal was collected after the final blood collection. The whole tissue was harvested, excised and rinsed by saline, dried by filter paper, and then placed into one tube per tissue per animal. All samples were stored at −20° C. until bioanalysis. Compound concentrations in plasma and brain homogenate were determined using a high performance liquid chromatography/mass spectrometry (HPLC/MS/MS) methods.

MLK-3 = MLK-3 (Homo sapiens, UniProt Q16584); experiment: Biochemical assay for the inhibition of kinase activity for MLK-3 (33P-ATP, HOTSPOT filter binding); details: activated MLK-3 20 nM, ATP 50 μM, myelin basic protein 20 μM, 20 minutes room temperature
Summary of the method: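 Activated MLK-3 (20 nM) with myelin basic protein (20 μM) in 20 mM Hepes pH 7.5, MgCl2, EGTA, Brij35, BSA, Na3VO4, DTT, 1% DMSO. Started with 33P-ATP at 50 μM ATP, 20 min at room temperature; % activity by HOTSPOT filter binding.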

T2 sequence (P06213 whole entry): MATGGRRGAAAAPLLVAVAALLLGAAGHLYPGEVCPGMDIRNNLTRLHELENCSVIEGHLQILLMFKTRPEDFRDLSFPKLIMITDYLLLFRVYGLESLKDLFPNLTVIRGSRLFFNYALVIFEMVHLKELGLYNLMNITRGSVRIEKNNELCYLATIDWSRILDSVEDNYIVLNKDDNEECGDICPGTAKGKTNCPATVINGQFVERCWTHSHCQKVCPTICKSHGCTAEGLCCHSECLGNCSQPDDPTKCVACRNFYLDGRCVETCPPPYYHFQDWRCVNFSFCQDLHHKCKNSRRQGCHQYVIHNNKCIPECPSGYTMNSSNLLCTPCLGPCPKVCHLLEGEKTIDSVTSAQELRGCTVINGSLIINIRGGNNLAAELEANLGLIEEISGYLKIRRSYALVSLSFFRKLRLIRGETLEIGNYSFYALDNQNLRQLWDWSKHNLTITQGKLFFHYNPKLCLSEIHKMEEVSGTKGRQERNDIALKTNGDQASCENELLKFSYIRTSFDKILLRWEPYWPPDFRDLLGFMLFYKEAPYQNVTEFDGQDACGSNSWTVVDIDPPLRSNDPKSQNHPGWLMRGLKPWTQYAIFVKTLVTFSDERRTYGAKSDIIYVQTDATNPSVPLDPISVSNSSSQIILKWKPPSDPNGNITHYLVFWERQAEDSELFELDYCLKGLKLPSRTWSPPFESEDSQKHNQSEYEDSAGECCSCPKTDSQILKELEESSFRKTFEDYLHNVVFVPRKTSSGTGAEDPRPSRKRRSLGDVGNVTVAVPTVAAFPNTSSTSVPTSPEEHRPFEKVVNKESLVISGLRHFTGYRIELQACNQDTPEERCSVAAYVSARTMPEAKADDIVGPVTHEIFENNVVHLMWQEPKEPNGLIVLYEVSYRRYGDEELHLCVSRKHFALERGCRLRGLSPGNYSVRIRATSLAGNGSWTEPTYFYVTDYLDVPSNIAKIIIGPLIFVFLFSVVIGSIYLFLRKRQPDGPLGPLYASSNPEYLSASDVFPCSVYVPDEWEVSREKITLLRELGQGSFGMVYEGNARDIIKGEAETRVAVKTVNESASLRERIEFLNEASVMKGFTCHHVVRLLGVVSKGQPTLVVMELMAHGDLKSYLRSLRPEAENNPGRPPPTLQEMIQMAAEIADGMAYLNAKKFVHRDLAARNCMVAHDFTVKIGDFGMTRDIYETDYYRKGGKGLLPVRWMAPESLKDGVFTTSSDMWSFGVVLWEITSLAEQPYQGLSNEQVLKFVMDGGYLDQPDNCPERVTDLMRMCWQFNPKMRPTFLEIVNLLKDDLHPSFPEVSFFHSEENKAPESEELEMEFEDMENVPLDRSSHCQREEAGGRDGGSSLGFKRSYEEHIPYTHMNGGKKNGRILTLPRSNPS
Sequence of MLK-3 (Q16584 whole entry): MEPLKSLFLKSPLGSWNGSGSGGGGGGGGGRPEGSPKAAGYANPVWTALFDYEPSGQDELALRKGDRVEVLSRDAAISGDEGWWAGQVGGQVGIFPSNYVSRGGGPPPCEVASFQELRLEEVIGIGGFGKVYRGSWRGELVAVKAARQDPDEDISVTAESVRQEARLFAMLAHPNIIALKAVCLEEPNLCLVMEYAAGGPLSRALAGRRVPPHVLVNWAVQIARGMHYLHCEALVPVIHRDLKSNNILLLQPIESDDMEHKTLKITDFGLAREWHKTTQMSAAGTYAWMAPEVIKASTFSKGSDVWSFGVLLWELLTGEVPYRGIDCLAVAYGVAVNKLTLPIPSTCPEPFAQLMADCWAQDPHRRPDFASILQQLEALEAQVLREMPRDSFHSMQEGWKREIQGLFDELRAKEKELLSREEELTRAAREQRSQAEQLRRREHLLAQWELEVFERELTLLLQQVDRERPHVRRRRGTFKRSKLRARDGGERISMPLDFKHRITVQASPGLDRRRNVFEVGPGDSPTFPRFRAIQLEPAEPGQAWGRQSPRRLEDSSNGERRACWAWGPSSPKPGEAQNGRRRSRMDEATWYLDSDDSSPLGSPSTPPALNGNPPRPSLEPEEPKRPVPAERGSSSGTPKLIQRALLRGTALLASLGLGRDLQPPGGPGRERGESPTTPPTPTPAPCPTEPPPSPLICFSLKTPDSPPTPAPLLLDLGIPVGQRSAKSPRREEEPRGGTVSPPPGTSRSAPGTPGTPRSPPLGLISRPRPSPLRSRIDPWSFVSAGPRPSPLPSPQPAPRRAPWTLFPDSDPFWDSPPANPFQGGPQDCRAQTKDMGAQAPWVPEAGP

Structure (SMILES)	CNS / blood brain barrier penetration [1]	Protection of the axon field ([2]; test compounds 100 nM, 18 hours)	IC50 (diverse set of kinases [3]; read-out: IC50 ABL1)	IC50 (diverse set of kinases [4])	IC50 (diverse set of kinases [5])	IC50 (diverse set of kinases [6])	IC50 (diverse set of kinases [7])	Axonogenesis in the presence of Tat-activated microglia ([2]; listed as Compound 68)	Axonogenesis in the presence of Tat-activated microglia ([2]; listed as compound 68)	concentration at 3 h [8]	IC50 (MLK-3)	IC50 (diverse set of kinases [3])
CCSCc1ccc2c(c1)c1c3c(c4c5cc(CSCC)ccc5n5c4c1n2[C@H]1C[C@](O)(C(=O)OC)[C@]5(C)O1)CNC3=O [CEP-1347]	very poor blood brain barrier penetration; also recorded: poor CNS penetration											
CN1CCN(Cc2ccc(-c3cnc4[nH]cc(-c5ccc6[nH]ccc6c5)c4c3)cc2)CC1 [URMC-099, reference compound]		protected the axon field	3 nM	257 nM	200 nM	1180 nM	591 nM					
COc1ccc(Nc2ccc3ncc(-c4cc5cccc(OC)c5s4)n3n2)cc1OC [Compound 68, 3-(7-methoxybenzo[b]thiophen-2-yl)-N-(3,4-dimethoxyphenyl)imidazo[1,2-b]pyridazin-6-amine]				> 10000 nM	> 10000 nM	> 10000 nM	> 10000 nM	continued axonogenesis	promoted continued axonogenesis	1550 ng/g	< 100 nM	> 10000 nM

From US9370515B2, “Mixed lineage kinase inhibitors and method of treatments” (CALIFIA BIO, INC., priority 2013, dated 2016)
